pIC50: −log10 of the molar value. Values after ≈ are worked out from the molar mass of the structure shown. Where two headings read alike, the source gives them in different places.
How the values were obtained:
[1] = system: HepG2 cells; assay: TPC assay (total protein content), 72 h exposure; type: cell-based, human
Procedure: (§1) The human hepatoma (HepG2) and colorectal adenocarcinoma (Caco-2) cells were purchased from the American Type Culture Collection: ATCC HB-8065 and ATCC HTB-37, respectively. These cells were cultured in Minimum Essential Medium Eagle (MEME) (ATCC). The murine fibroblasts cell line (Balb/c 3T3 clone A31) (gift from the Department of Swine Diseases of the National Veterinary Research Institute in Pulawy) was cultured in Dulbecco’s Modified Eagle Medium (DMEM) (ATCC). The media were supplemented with 10% BCS (Balb/c 3T3), 10% FBS (HepG2), 20% FBS (Caco-2), 1% L-glutamine, 1% antibiotic solution. The cells were maintained in 75 cm^2 cell culture flasks (NUNC) in a humidified incubator at 37 °C in an atmosphere of 5% CO2. The medium was refreshed every two or three days, and the cells were trypsinized by 0.25% trypsin–0.02% EDTA after reaching 70–80% confluence. Single cell suspensions were prepared and adjusted to a density of 2 × 10^5 cell/mL^−1 (HepG2), 1 × 10^5 cell/mL^−1 (Caco-2) and 5 × 10^4 cell/mL^−1 (Balb/c 3T3). The cell suspension was transferred to 96-well plates (100 µL/well) and incubated for 24 h before the exposure to the studied compounds. Stock solutions of ligands and metal complexes were prepared in sterile water and diluted with culture medium to obtain a concentration range from 0.1 to 10 µM. The final concentration of sterile water was 0.1% in the medium. […] As a negative control, cultured cells were grown in the absence of studied compounds. Each concentration was tested in six replicates in three independent experiments. Cytotoxicity was assessed after 72 h of exposure of the cells to compounds. The medium was not changed during the incubation time.
This assay is based upon staining the total cellular protein (proliferation). After the incubation, the medium containing the drug was removed, and 100 µL Coomassie brilliant blue R-250 dye was added to each well. The plate was shaken for 10 min. Then, the stain was removed and the cells were rinsed twice with 100 µL of washing solution (glacial acetic acid/ethanol/water, 5:10:85, v:v:v). After that, 100 µL of the desorbing solution (1 M potassium acetate) was added, and plates were shaken again for 10 min. The absorbance was measured at 595 nm in a microplate reader Synergy HTX multi-mode reader (BioTek® Instruments Inc., Winooski, VT, USA) using a blank as a reference. Cytotoxicity was expressed as a percentage of the negative control.
The study was performed in three independent experiments. The obtained results are presented as mean values ± SD (standard deviation). The assessment of the cytotoxicity data used a one-way analysis of variance (ANOVA) followed by Dunnett’s post hoc test, which was applied to determine significance relative to the negative control.

[2] = system: HepG2 cells; assay: LDH leakage assay (membrane integrity), 72 h exposure; type: cell-based, human
Procedure: as §1
(§2) The integrity of the plasma membrane was assessed through the test of lactate dehydrogenase (LDH) release, which was monitored using the commercially available Cytotoxicity Detection Kit (LDH) (Roche Diagnostics, Warsaw, Poland). […] The absorbance was measured at 492 nm in a microplate reader Synergy HTX multi-mode reader (BioTek® Instruments Inc., Winooski, VT, USA) using a blank as a reference. […]

[3] = system: Caco-2 cells; assay: MTT assay (mitochondrial activity), 72 h exposure; type: cell-based, human; settings: Caco-2, MTT
[4] = system: Balb/c 3T3 cells; assay: NRU assay (lysosomal activity), 72 h exposure; type: cell-based, murine
Procedure: as §1
This method is based on staining living cells with neutral red, which readily diffuses through the plasma membrane and accumulates in lysosomes. […] After 10 min of shaking, the absorbance of the dissolved NR was measured using a Synergy HTX multi-mode reader (BioTek® Instruments Inc., Winooski, VT, USA) at 540 nm using a blank as a reference. Cytotoxicity was expressed as a percentage of the negative control. […]

[5] = system: Balb/c 3T3 cells; assay: TPC assay (total protein content), 72 h exposure; type: cell-based, murine
Procedure: as §1
This assay is based upon staining the total cellular protein (proliferation). […] The absorbance was measured at 595 nm in a microplate reader Synergy HTX multi-mode reader (BioTek® Instruments Inc., Winooski, VT, USA) using a blank as a reference. Cytotoxicity was expressed as a percentage of the negative control. […]

[6] = system: Balb/c 3T3 cells; assay: LDH leakage assay (membrane integrity), 72 h exposure; type: cell-based, murine
Procedure: as §1, §2

[7] = system: S. epidermidis ATCC 12228; assay: micro-dilution broth method (MIC, MBC); type: cell-based, Staphylococcus epidermidis
[8] = system: M. luteus ATCC 10240; assay: micro-dilution broth method (MIC, MBC); type: cell-based, Micrococcus luteus
[9] = system: A. israeli ATCC 10049; assay: micro-dilution broth method (MIC, MBC); type: cell-based, Actinomyces israelii
[10] = system: C. jejunii ATCC 33291; assay: micro-dilution broth method (MIC, MBC); type: cell-based, Campylobacter jejunii
[11] = system: B. fragilis ATCC 10240; assay: micro-dilution broth method (MIC, MBC); type: cell-based, Bacteroides fragilis
[12] = system: P. intermedia ATCC 25611; assay: micro-dilution broth method (MIC, MBC); type: cell-based
[13] = system: V. parvula ATCC 10790; assay: micro-dilution broth method (MIC, MBC); type: cell-based, Veillonella parvula
[14] = S. epidermidis ATCC 12228, value in brackets
[15] = M. luteus ATCC 10240, value in brackets
[16] = A. israeli ATCC 10049, value in brackets
[17] = C. jejunii ATCC 33291, value in brackets
[18] = B. fragilis ATCC 10240, value in brackets
[19] = P. intermedia ATCC 25611, value in brackets
[20] = V. parvula ATCC 10790, value in brackets

`Cc1ncc([N+](=O)[O-])n1CCO.Cc1ncc([N+](=O)[O-])n1CCO.Cc1ncc([N+](=O)[O-])n1CCO.Cc1ncc([N+](=O)[O-])n1CCO.O=S(=O)([O-])[O-].[Ag+].[Ag+]` [[Ag(MTZ)2]2SO4] was tested, and the “lowest concentration with significant (p ≤ 0.05) effect” value ([1]; Figure 6) was 5.0 µM, the “lowest concentration with significant (p ≤ 0.05) effect” value ([2]; Figure 6) was 5.0 µM and the “lowest concentration with inhibition of mitochondrial activity” value ([3]; Figure 6) was 1.0 µM. For the same compound, the “lowest concentration with significant (p ≤ 0.05) effect” value ([4]; Balb/c 3T3, NRU, Figure 6) was 5.0 µM, the “lowest concentration with significant (p ≤ 0.05) effect” value ([5]; Balb/c 3T3, TPC, Figure 6) was 5.0 µM and the “lowest concentration with significant (p ≤ 0.05) effect” value ([6]; Balb/c 3T3, LDH, Figure 6) was 5.0 µM. For the same compound, the MBC ([7]; S. epidermidis ATCC 12228) was 15.6 mg/L, the MIC ([7]; S. epidermidis ATCC 12228) was 7.8 mg/L and the MBC [7, 14] was 0.014 µM/mL. For the same compound, the MIC [7, 14] was 0.007 µM/mL, the MIC ([8]; M. luteus ATCC 10240) was 7.8 mg/L and the MBC [8, 15] was 0.12 µM/mL. The MIC [8, 15] was 0.007 µM/mL, the MBC ([9]; A. israeli ATCC 10049) was 15.6 mg/L and the MIC ([9]; A. israeli ATCC 10049) was 7.8 mg/L. It also gave an MBC [9, 16] of 0.014 µM/mL, an MIC [9, 16] of 0.007 µM/mL and an MBC ([10]; C. jejunii ATCC 33291) of 500 mg/L. It also gave an MBC [10, 17] of 0.46 µM/mL, an MIC [10, 17] of 0.23 µM/mL and an MIC ([10]; C. jejunii ATCC 33291, listed as [Ag(MTZ)2]2SO4·5H2O) of 250 mg/L. It also gave an MBC ([11]; B. fragilis ATCC 10240) of 0.98 mg/L, an MIC ([11]; B. fragilis ATCC 10240) of 0.24 mg/L and an MBC [11, 18] of 0.0009 µM/mL. For the same compound, the MIC [11, 18] was 0.0002 µM/mL, the MBC ([12]; P. intermedia ATCC 25611) was 15.6 mg/L and the MIC ([12]; P. intermedia ATCC 25611) was 0.98 mg/L. For the same compound, the MBC [12, 19] was 0.014 µM/mL, the MIC [12, 19] was 0.0009 µM/mL and the MBC ([13]; V. parvula ATCC 10790) was 3.9 mg/L. For the same compound, the MIC ([13]; V. parvula ATCC 10790) was 3.9 mg/L, the MBC [13, 20] was 0.004 µM/mL and the MIC [13, 20] was 0.004 µM/mL.

`Cc1ncc([N+](=O)[O-])n1CCO` [MTZ, 2-Methyl-5-nitroimidazole-1-ethanol] was tested, and the pIC50 ([1]; Homo sapiens, mean ± SD, n = 3) was less than 5.00, the pIC50 ([2]; Homo sapiens, mean ± SD, n = 3) was less than 5.00 and the pIC50 ([3]; Homo sapiens, mean ± SD, n = 3) was less than 5.00. It also gave a pIC50 ([4]; Mus musculus, BALB/c3T3, Balb/c 3T3, NRU, mean ± SD, n = 3) of less than 5.00, a pIC50 ([5]; Mus musculus, BALB/c3T3, Balb/c 3T3, TPC, mean ± SD, n = 3) of less than 5.00 and a pIC50 ([6]; Mus musculus, BALB/c3T3, Balb/c 3T3, LDH, mean ± SD, n = 3) of less than 5.00. The MBC [7, 14] was 2.93 µM/mL, the MIC [7, 14] was 2.93 µM/mL and the MBC ([7]; Staphylococcus epidermidis, ATCC12228, S. epidermidis ATCC 12228, read-out: MBC) was 500 mg/L (≈ 2920 µM). For the same compound, the MIC ([7]; Staphylococcus epidermidis, ATCC12228, S. epidermidis ATCC 12228, read-out: MIC) was 500 mg/L (≈ 2920 µM), the MBC [8, 15] was greater than 5.85 µM/mL and the MIC [8, 15] was 5.85 µM/mL. It also gave an MBC ([8]; Micrococcus luteus, ATCC10240, M. luteus ATCC 10240, read-out: MBC) greater than 1000 µg/mL, an MIC ([8]; Micrococcus luteus, ATCC10240, M. luteus ATCC 10240, read-out: MIC) of 1000 mg/L (≈ 5840 µM) and an MBC [9, 16] greater than 5.85 µM/mL. It also gave an MIC [9, 16] greater than 5.85 µM/mL, an MBC ([9]; Actinomyces israelii, ATCC10049, A. israeli ATCC 10049, read-out: MBC) greater than 1000 mg/L and an MIC ([9]; Actinomyces israelii, ATCC10049, A. israeli ATCC 10049, read-out: MIC) greater than 1000 mg/L. It also gave an MBC [10, 17] greater than 5.85 µM/mL, an MIC [10, 17] of 2.93 µM/mL and an MBC ([10]; Campylobacter, ATCC33291, C. jejunii ATCC 33291, read-out: MBC) greater than 1000 mg/L. The MIC ([10]; Campylobacter, ATCC33291, C. jejunii ATCC 33291, read-out: MIC) was 500 mg/L (≈ 2920 µM), the MBC [11, 18] was 0.003 µM/mL and the MIC [11, 18] was 0.003 µM/mL. It also gave an MBC ([11]; Bacteroides fragilis, ATCC10240, B. fragilis ATCC 10240, read-out: MBC) of 0.49 mg/L (≈ 2.86 µM), an MIC ([11]; Bacteroides fragilis, ATCC10240, B. fragilis ATCC 10240, read-out: MIC) of 0.49 mg/L (≈ 2.86 µM) and an MBC [12, 19] greater than 5.85 µM/mL. It also gave an MIC [12, 19] of 5.85 µM/mL, an MBC ([12]; Prevotella intermedia, ATCC25611, P. intermedia ATCC 25611, read-out: MBC) greater than 1000 mg/L and an MIC ([12]; Prevotella intermedia, ATCC25611, P. intermedia ATCC 25611, read-out: MIC) of 1000 mg/L (≈ 5840 µM). The MBC [13, 20] was 0.01 µM/mL, the MIC [13, 20] was 0.01 µM/mL and the MBC ([13]; Veillonella parvula, ATCC10790) was 1.95 mg/L (≈ 11.4 µM). For the same compound, the MIC ([13]; Veillonella parvula, ATCC10790) was 1.95 mg/L (≈ 11.4 µM).

From paper PMC8869984, “Multifunctional Silver(I) Complexes with Metronidazole Drug Reveal Antimicrobial Properties and Antitumor Activity against Human Hepatoma and Colorectal Adenocarcinoma Cells” (Cancers, 2022)
